Measured values as given in patent publication EP4516281A1, “COSMETIC COMPOSITIONS” (The Boots Company plc, priority 2023, dated 2025).

Test system: mushroom tyrosinase
Assay: Tyrosinase inhibition screening (L-DOPA oxidation, absorbance at 470 nm)
Format: biochemical
Conditions: Concentration 0.1%; single compounds
Source text: The tyrosinase inhibition may be used to determine the tyrosinase inhibition ability of the compounds. The test comprises adding the test compound to a solution of L-dihydroxyphenylalanine (L-(DOPA)) and mushroom tyrosinase. L-(DOPA) is converted to […] by the mushroom tyrosinase, causing a brown colour to form. Inhibition of this reaction prevents the brown colour formation. The lighter the colour at the end of the reaction, the stronger is the inhibitory effect of the active. Absorbance data may be collected using a plate reacted set up to have a kinetic read every 1 minute for 30 minutes, where absorbance is read at 470 nm.

Compound	Tyrosinase Inhibition (%)
O=C(O)C(O)c1ccccc1 (stereo not shown) [C, Mandelic acid]	80.279
Feruloyl oligopeptide-33	41.765
CCCCCCCCCCCCCCC[C@@H](O)[C@@H](N)CO [G, Sphinganine]	-5.78
C=C(C)[C@@H]1CCC(C)=C[C@H]1c1c(O)cc(CCCCC)cc1O [F, Cannabidiol isolate (CBD)]	9.134
